This is an account of results in PMC4211885 (PLoS ONE, 2014).

Entries after “also recorded” stand apart in the source; their conditions may differ.

The target of experiment [1] is T1, OA/TAMac receptor (Macrobrachium rosenbergii, UniProt D9U2B9). As to the kind of experiment: Agonist-evoked direct-current (ID) in Xenopus oocytes injected with OA/TAMac cRNA, two-electrode voltage clamp. In kind it is cell-based. The note with it: for ID response amplitude (mean ± s.d.): 10 µM, 10 second focal application, OA/TAMac and CFTR co-injected, n = 11 oocytes; for EC50: voltage clamped at −60 mV, approximate, estimated graphically from plot, read-out: EC50 of transmitter evoked direct-current (ID), normalized I/Imax; for Spearman rank-order correlation (rS) between rise rate and peak amplitude of evoked ID: all responses of the concentration series of Figure 3C. An excerpt: We used Xenopus oocytes to express the prawn OA/TAMac receptor by injection of synthetic cRNA. The injection of foreign RNA into Xenopus oocytes typically induces the expression of multiple native chloride and potassium channels. Ligand evoked currents resulting from modulation of these channels have been used extensively in the characterization of heterologously expressed GPCRs. Oocytes are typically voltage clamped at a constant membrane potential around −60 mV and deviations in holding potential are measured. We refer to currents measured in this way as direct-currents (ID) (after) in order to distinguish them from the voltage-evoked transient current (ICl-T) described later.
Both flow rate and pulse duration were precisely controlled and comparisons were made relative to currents within single oocytes.
To characterize the dose dependence of ID, series of single transmitters were applied to different individual oocytes injected with OA/TAMac. Oocytes were voltage clamped at −60 mV and tyramine, (+/−)-octopamine, or dopamine were applied using 30 second perfusion-switched applications (see methods for more details).
Recordings were performed 1–3 days post-injection at room temperature (20–22°C). Currents were recorded under two-electrode voltage clamp using an Axoclamp 900a amplifier (Molecular Devices LLC, CA USA). A digidata 1440a analog to digital converter was used in conjunction with pCLAMP 10 software (Molecular Devices) for data acquisition and to generate voltage commands. For each step protocol or chemical application data were typically sampled at 5 KHz and filtered digitally at 1 KHz. For the duration of each experiment the current was also continuously sampled at 1 kHz using a separate minidigi 1A digitizer (Molecular Devices). Glass microelectrodes were pulled from filamented 1.2 mm thin wall borosilicate glass (World Precision Instruments, Sarasota, FL) using a Sutter Instruments P-97 puller. They were filled with 3 M KCl and had resistances of 0.8–2.0 MΩ. A silver chloride pellet immersed in 3 M KCl and connected to the bath via a 3% agar bridge made with 3 M KCl was used as the reference electrode.
Oocytes were continuously perfused at 1.5 mL/min either with ND 96 or test compounds dissolved in ND 96. Two types of application were used over the course of this study, a perfusion-switch or a focal application. In all cases solutions were delivered through a gravity fed system and switched using a computer controlled bank of pinch valves. Flow rate was regulated with a manual screw-type pinch valve.
For focal application a triple barrel pipette with three parallel independently switched channels was positioned about 1 mm from the surface of the oocyte, up-stream of a cross flow, at an approximate angle of 45 degrees (schematic shown in Fig. S8). Drugs were focally applied during continuous perfusion with ND 96.
In experiments where more than three drugs or concentrations were tested a precisely controlled 30 s perfusion-switch was used. Up to eight channels were connected to the bath via an 8-way manifold. There was an approximately 6–7 s delay for solutions to traverse the dead volume between the manifold and the bath.

Experiment [2] addresses T1, OA/TAMac receptor. The experiment in a line: Modulation of the transient calcium-dependent chloride current ICl-T in OA/TAMac-injected oocytes (voltage step protocol). In kind it is cell-based. The note with it: for Effect on ICl-T at lower concentration: 1 µM and 100 µM, 8 minute applications, n = 5 at each concentration; for Effect on ICl-T during prolonged application: 1 mM (high concentration), n = 4 oocytes. An excerpt: The fluctuations in holding current that we refer to as ID have often been referred to as the calcium-dependent chloride current. These currents are in fact complex and are known to contain multiple poorly defined components that arise from a number of unidentified potassium, chloride and mixed cationic channels, [47]. For this reason, we tested the effect of tyramine and octopamine on one of the better characterized components, the transient calcium-dependent chloride current that we refer to as ICl-T after. This current, which has been referred to as Iout, [54], ICl-2 [55] or ICl1-T [53], can be clearly isolated from ID using a specific pulse protocol (Fig. 6A). Furthermore, ICl-T is known to increase in response to inositol 1,4,5-triphosphate (IP3) injection, [55]. Modulation of this current therefore provides additional insight into how IP3 related pathways might be affected by transmitter application.
Figure 6 Differential modulation of a transient chloride current by tyramine (TA) and octopamine (OA). ICl-T is an endogenous calcium-dependent transient chloride current coupled to extra-celluar calcium influx. It is thought to arise from a single type of channel. […] (A) The voltage command protocol used to measure ICl-T is shown with an example current. The first step to +40 mV from the holding potential of −20 mV evokes no ICl-T and provides the baseline. The hyperpolarizing step to −140 mV induces calcium influx that causes ICl-T to appear during the second step to +40 mV [53]. The amplitude of ICl-T was measured as the difference between the first step and the peak of the transient current evoked by the second. (B) Measurements of ICl-T were taken every minute during the ID evoked by long applications of 1 mM TA and 1 mM OA. The vertical lines are the currents evoked by the voltage command pulse used to measure ICl-T (as shown in A). Their true amplitude was clipped from the image during figure preparation. Below the trace individual ICl-T transients are shown. Δ ICl-T is the difference in amplitude of these transients measured at different time points. The amplitude of ICl-T increases during continuous TA application and decreases during continuous OA application. There was a 38 minute washout period between the TA and OA applications. […]
ICl-T was measured under two-electrode voltage-clamp by hyperpolarizing the oocyte to −140 mV after a step to +40 mV and stepping back to +40 mV (Fig. 6A). […] ICl-T is measured instead of Icat because ICl-T is a pure chloride conductance that likely arises from one ion channel population while Icat is complex arising from more than one conductance.
We monitored ICl-T over the course of extended transmitter applications using the described pulse protocol. […]

[3] abbreviates: 30 second perfusion-switched applications, −60 mV.

T1 sequence (D9U2B9 entry or part of it): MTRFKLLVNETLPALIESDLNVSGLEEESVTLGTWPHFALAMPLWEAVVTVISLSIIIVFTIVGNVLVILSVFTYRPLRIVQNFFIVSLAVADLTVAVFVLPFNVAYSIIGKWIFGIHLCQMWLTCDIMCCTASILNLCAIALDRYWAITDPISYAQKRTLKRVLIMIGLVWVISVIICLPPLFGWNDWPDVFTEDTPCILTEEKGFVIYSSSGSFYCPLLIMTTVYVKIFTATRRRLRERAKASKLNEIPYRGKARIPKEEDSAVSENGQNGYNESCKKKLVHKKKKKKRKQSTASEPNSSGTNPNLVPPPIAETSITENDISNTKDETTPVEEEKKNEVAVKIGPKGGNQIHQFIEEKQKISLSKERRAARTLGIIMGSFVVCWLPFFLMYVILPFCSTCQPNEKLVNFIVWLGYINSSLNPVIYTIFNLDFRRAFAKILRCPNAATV

On to `NCC(O)c1ccc(O)cc1` (racemic) [octopamine, (+/−)-octopamine], for which, in experiment [1] (−60 mV), the “ID response amplitude (mean ± s.d.)” value is recorded as 75±55 nA. Besides, in experiment [1] (50 µM, 30 second perfusion-switch, n = 6, standard deviation 32 nA), the “Mean ID response amplitude in the agonist set” value worked out at 119 nA. For the same compound, in experiment [1] (30 second perfusion-switch), the EC50 is ~21 µM. For the same compound, the “Concentration at which evoked inward currents became visible/apparent” value in experiment [1] (setting [3]) is “around 1 µM”. In experiment [1], the “Spearman rank-order correlation (rS) between rise rate and peak amplitude of evoked ID” value stood at 0.93. In experiment [2], the “Effect on ICl-T at lower concentration” value was “no apparent effect” and the “Effect on ICl-T during prolonged application” value was “reversibly decreases; also recorded: decreased”.
Turning to `NCCc1ccc(O)cc1` [tyramine], in experiment [1] (−60 mV), the “ID response amplitude (mean ± s.d.)” value amounted to 229±152 nA. The EC50 in experiment [1] (30 second perfusion-switch) is ~0.2 µM. Moreover, in experiment [1] (setting [3]), the “Concentration at which evoked inward currents became visible/apparent” value is recorded as “around 0.1 µM” and the “Concentration at which the response reached maximum amplitude” value is listed as “around 10 µM”. Besides, in experiment [1], the “Spearman rank-order correlation (rS) between rise rate and peak amplitude of evoked ID” value worked out at 0.52. Moreover, in experiment [2], the “Effect on ICl-T at lower concentration” value was “increase” and the “Effect on ICl-T during prolonged application” value is reported as “reversibly increases; also recorded: increased”.
